Experimental data from US20140303092A1 (CHIMERIX, INC., priority 2011, published 2014).

Tests used:
[1] = Study HDP-CDV-112: mass balance and metabolite profiling of 14C-radiolabeled HDP-CDV; settings: for metabolite AUC as share of total HDP-CDV-derived radioactivity AUC: plasma, through 24 h postdose
Procedure: The criteria for stopping urine and stool collection were assessed independently of each other.

clinical = settings: human, in vivo
Procedure: The pharmacokinetics of HDP-CDV (oral solution) were investigated in a dose-escalation study in healthy volunteers (Study HDP-CDV-102) in which single doses of up to 2 mg/kg and multiple doses (3 doses, each separated by 6 days) of up to 1 mg/kg were administered.

AdV = assay: In vitro antiviral activity in cell culture, AdV; type: cell-based; settings: unidentified adenovirus
HHV-6(B) = assay: In vitro antiviral activity in cell culture, HHV-6(B); type: cell-based, human herpesvirus 6; settings: Human betaherpesvirus 6, B-cell

Nc1ccn(C[C@@H](CO)OCP(=O)(O)OCCCOCCCC(=O)O)c(=O)n1 [CMX064, 4-(3-propoxy)butanoic acid ester of CDV]
in vitro pharmacological activity and cytotoxicity compared to HDP-CDV (ectromelia): lower pharmacologic and cytotoxic activity
percent dose excreted in urine ([1]; drug-derived metabolites): 10%
metabolite AUC as share of total HDP-CDV-derived radioactivity AUC [1]: ~23%

Nc1ccn(CC(CO)OCP(=O)(O)OCCCO)c(=O)n1 (stereo not drawn) [CMX103, 3-hydroxypropyl ester of CDV]
in vitro pharmacological activity and cytotoxicity compared to HDP-CDV (ectromelia): lower pharmacologic and cytotoxic activity
percent dose excreted in feces ([1]; drug-derived metabolites): 6%
percent dose excreted in urine ([1]; drug-derived metabolites): 21%
metabolite AUC as share of total HDP-CDV-derived radioactivity AUC [1]: approximately 32%

Nc1ccn(C[C@@H](CO)OCP(=O)(O)O)c(=O)n1 [Cidofovir, cidofovir, reference compound]
in vitro pharmacological activity and cytotoxicity compared to HDP-CDV (ectromelia): lower pharmacologic and cytotoxic activity
Cmax and AUC versus dose (clinical): increased approximately in proportion to dose
accumulation on Day 12 (clinical): negligible accumulation
time of Cmax after administration (clinical; po): 9 to 15 h
EC50 (AdV): 1.3 µM
EC50 (HHV-6(B)): 5.4 µM

Nc1nc(O)c2ncn(COC(CO)CO)c2n1 [Ganciclovir, ganciclovir]
EC50 (AdV): 4.5 to 33 µM
EC50 (HHV-6(B)): 5.9 µM
